{"source": "patent EP2559435A1", "about": "“Rotigotine in the treatment of hemispatial neglect, stroke and deficits following stroke” (UCB Pharma GmbH, priority 2011, dated 2013)", "key": {"neglect patients": {"test_system": "neglect patients", "conditions": "cited from earlier work"}, "[1]": {"test_system": "patients with hernispatial neglect and unilateral weakness following right hemisphere stroke", "experiment": "Mesulam cancellation (visual search) task of hemispatial neglect, clinical trial", "assay_type": "in vivo", "description": "(§1) A commercially available rotigotine TTS has been tested in a double-blind, randomised, placebo controlled trial of the dopamine agonist rotigotine in 16 patients aged over 18 years with hernispatial neglect and unilateral weakness following right hemisphere stroke.\n(§2) Patients were assessed with a battery of standardised neglect tests, as well as with tests of working memory, selective and sustained attention and motor function. A replicated ABA double-blind, placebo-controlled N-of-1 randomised design (Edgington E, Onghena P. Randomization Tests (Statistics: a Series of Textbooks and Monographs). 4th ed. Chapman & Hall/CRC: 2007), which allows to evaluate the effectiveness of an intervention in small sample sizes. Each patient's performance was measured in three phases, each consisting of several assessment sessions: before treatment (phase A1), while receiving transdermal rotigotine (phase B) and after discontinuation of the drug - post treatment phase (phase A2). The exact duration of each phase was randomised across patients. Performance on rotigotine was compared with the pre-treatment baseline and post-treatment follow-up phases.\n(§3) The effects of the drug were evaluated for the whole group of 16 patients, and, separately for two subgroups with different extent of involvement of the prefrontal cortex in the stroke lesion. The subgroups are defined according to the extent of involvement of the prefrontal cortex in the stroke lesion: a minimal prefrontal involvement subgroup (0%-15% of the prefrontal cortex affected) and an extensive prefrontal subgroup (33%-55% of the prefrontal cortex affected).\nPhase A1 started on session 1 and its duration was randomised (across individuals) to between 5 and 9 days. Observations during this phase established the baseline performance. Phase B, when rotigotine was administered, could commence on day 6 to day 10, and its duration was a minimum of 7 and a maximum of 11 sessions. During treatment phase, a rotigotine 9 mg patch (4mg/24hr transdermal absorption) was applied daily and worn for 24 hours a day. Finally, phase A2, when patients were assessed after the discontinuation of rotigotine, was randomised to begin between sessions 13 and 17, and it lasted for the remaining 4 to 8 sessions.\nEach patient was randomly assigned a pattern of onset and duration of the treatment and baseline phases, within the duration limits described above. In this example, the patient had 6 baseline assessments (phase A1, sessions 1-6), followed by 8 days on rotigotine (sessions 7-14) and 6 follow-up assessments (phase A2, sessions 15-20) after discontinuation of the drug. […] Mid-grey depicts any additional sessions in phases A1 and A2 when the patient received placebo patches. Some other possible permutations of pre-treatment, treatment and post-treatment phases within the constraints of the design are shown in figure 1b. The actual difference in performance between treatment (B) and the off-treatment phases (A1 and A2) was ranked against the differences between phases produced by all other possible combinations of treatment allocation, given the limits in phase onset and duration. In total, there were 15 possible permutations.\nThis visuospatial scanning test-further described in Mesulam, M.-M. Principles of Behavioural Neurology; tests of directed attention and memory (Davis, Philadelphia, 1985) - with a cluttered array of symbols is performed on A3 sheets. In this test visual target objects are identified among distracters; targets identified are marked by the participant (black circles in fig. 2). There was a 2 minutes time limit for this task. […] Furthermore, on rotigotine, there was an improvement in the spatial bias of the responses, measured as the proportion of the targets identified on the left when compared to those identified on the right. In the minimal prefrontal involvement subgroup, rotigotine had again a significant positive effect in the number of targets identified on the left. […]"}, "[2]": {"test_system": "patients with hernispatial neglect and unilateral weakness following right hemisphere stroke", "experiment": "Touchscreen cancellation task of hemispatial neglect, clinical trial", "assay_type": "in vivo", "conditions": "group of all 16 patients; on rotigotine vs before treatment onset", "description": "as §1\nas §2, with “Performance on rotigotine was compared with the pre-treatment baseline and post-treatment follow-up phases.” left out\n(§4) Phase A1 started on session 1 and its duration was randomised (across individuals) to between 5 and 9 days. […] Finally, phase A2, when patients were assessed after the discontinuation of rotigotine, was randomised to begin between sessions 13 and 17, and it lasted for the remaining 4 to 8 sessions. […]"}, "[3]": {"test_system": "patients with hernispatial neglect and unilateral weakness following right hemisphere stroke", "experiment": "Vertical Corsi spatial working memory task, clinical trial", "assay_type": "in vivo", "conditions": "in some patients", "description": "as §1\nas §2, with “Performance on rotigotine was compared with the pre-treatment baseline and post-treatment follow-up phases.” left out\nas §4"}, "[4]": {"test_system": "patients with hernispatial neglect and unilateral weakness following right hemisphere stroke", "experiment": "Selective and sustained attention (vigilance) task, clinical trial", "assay_type": "in vivo", "description": "as §1, §2, §3\nPhase A1 started on session 1 and its duration was randomised (across individuals) to between 5 and 9 days. Observations during this phase established the baseline performance. […] Finally, phase A2, when patients were assessed after the discontinuation of rotigotine, was randomised to begin between sessions 13 and 17, and it lasted for the remaining 4 to 8 sessions.\nThe subject had to identify high- or low- sallence targets among non targets on either side. % correct and reaction times are measured, further described in Barcelo et al. Nature Neuroscience 2000 3:399-403.\nParticipants detected targets (inverted triangles) among sequences of distractors (upright triangles) randomly presented to the ipsilesional and contralesional visual fields. […]\nAs a measure of selective attention, the ratio of the reaction time (RT) to high visual salience targets over the RT to low visual salience targets was used. Furthermore, using this task, sustained attention was quantified over time, by measuring the difference in RT and % correct responses between the first and the second half of each experimental session. […]"}, "[5]": {"test_system": "patients with hernispatial neglect and unilateral weakness following right hemisphere stroke", "experiment": "Motricity Index (motor function on the affected side), clinical trial", "assay_type": "in vivo", "conditions": "in some patients", "description": "as §1\nas §2, with “Performance on rotigotine was compared with the pre-treatment baseline and post-treatment follow-up phases.” left out\nas §4"}}, "note": "Read-outs that look alike come from different tables or passages of the source.", "data": [{"smiles": "NC12CC3CC(CC(C3)C1)C2", "note": "[amantadine]", "values": [{"measurement": "effect on hemispatial neglect", "setting": "neglect patients; small-scale trial in four neglect patients (Buxbaum et al. 2007)", "result": "did not demonstrate any beneficial effect"}]}, {"smiles": "CCCN(CCc1cccs1)C1CCc2c(O)cccc2C1", "note": "(single isomer, unassigned; (-)) [rotigotine, (-)-5,6,7,8-tetrahydro-6-[propyl-[2-(2thienyl)ethyl]-amino]-1-naphthalenol]", "values": [{"measurement": "number of targets found on the left side", "setting": "[1]; entire group of 16 patients, on rotigotine vs pre- and post-treatment phases averaged or post-treatment phase alone", "result": "significantly higher"}, {"measurement": "difference on- and off-treatment in the number of targets found on the left side relative to baseline", "setting": "[1]; entire group of 16 patients, rotigotine 9 mg patch (4mg/24hr) daily, actual treatment allocation higher than mean difference of all possible permutations", "result": 12.8, "unit": "%"}, {"measurement": "effect size: less rightward bias relative to baseline (spatial bias in visual search)", "setting": "[1]; entire group of 16 patients, rotigotine 9 mg patch (4mg/24hr) daily, actual treatment allocation in comparison to all possible permutations", "result": 8.1, "unit": "%"}, {"measurement": "spatial bias in visual search", "setting": "[1]; entire group, on rotigotine vs post-treatment phase or both off-treatment phases", "result": "improved significantly"}, {"measurement": "decrease in the number of targets found in a smaller area on the right hand side", "setting": "[1]; entire patient group, during treatment", "result": "not statistically significant"}, {"measurement": "spatial bias", "setting": "[1]; extensive prefrontal group, on rotigotine", "result": "improved significantly"}, {"measurement": "number of left targets found", "setting": "[1]; extensive prefrontal subgroup (33%-55% of prefrontal cortex affected), on rotigotine", "result": "did not reach significance"}, {"measurement": "number of targets identified in total", "setting": "[1]; group of all 16 patients, on rotigotine", "result": "significantly larger number of targets"}, {"measurement": "number of left targets found", "setting": "[1]; minimal prefrontal subgroup (0%-15% of prefrontal cortex affected), on rotigotine", "result": "significantly higher"}, {"measurement": "targets identified", "setting": "[2]", "result": "more targets were identified"}, {"measurement": "spatial working memory (spatial span)", "setting": "[3]", "result": "improved spatial working memory"}, {"measurement": "ratio of RT to high salience vs low salience targets", "setting": "[4]; entire group, left sided targets, during treatment vs pre-treatment baseline", "result": "significant increase"}, {"measurement": "ratio of RT to high salience vs low salience targets", "setting": "[4]; entire group, left sided targets, treatment vs post-treatment baseline or average of both off-treatment phases", "result": "only marginal"}, {"measurement": "ratio of RT to high salience vs low salience targets", "setting": "[4]; extensive prefrontal subgroup, overall for both left and right-sided targets", "result": "significant beneficial effect"}, {"measurement": "ratio of RT to high salience vs low salience targets", "setting": "[4]; minimal prefrontal subgroup (e.g. left sided targets, comparison with off-treatment average)", "result": "no significant effect"}, {"measurement": "motor function on the affected side (Motricity Index of the affected arm, leg and side)", "setting": "[5]", "result": "improved motor function on the affected side"}]}, {"smiles": "CN1CCc2cccc3c2[C@H]1Cc1ccc(O)c(O)c1-3", "note": "[Apomorphine]", "values": [{"measurement": "effect on hemispatial neglect", "setting": "neglect patients; four neglect patients tested (Geminiani et al. 1998)", "result": "transient improvement in three out of four neglect patients"}]}]}
